Reference: patent US12371454B2, “Cyclic peptide compound having Kras inhibitory action” (priority 2019, dated 2025)
Positions of bridges follow the written chain, without caps; N, C: chain ends. Non-standard residues stand in square brackets, D forms with d. Residues, ends and D or L forms follow the SMILES beside them. *: point of attachment. hPhe(3-Cl-4-CF3) = N[C@@H](CCc1ccc(C(F)(F)F)c(Cl)c1)C(=O)O; NMePhe(4-CF3) = CN[C@@H](Cc1ccc(C(F)(F)F)cc1)C(=O)O; hPhe(4-CF3) = N[C@@H](CCc1ccc(C(F)(F)F)cc1)C(=O)O; NMeAbu(4,4,4-F3) = CN[C@@H](CC(F)(F)F)C(=O)O; NMePhe(4-Cl) = CN[C@@H](Cc1ccc(Cl)cc1)C(=O)O; NMePhe(4-Me) = CN[C@@H](Cc1ccc(C)cc1)C(=O)O; NMePhe(4-I) = CN[C@@H](Cc1ccc(I)cc1)C(=O)O; hNle(7,7-F2) = N[C@@H](CCCCC(F)F)C(=O)O; NMeGly(cPent) = CN[C@H](C(=O)O)C1CCCC1; Phe(3-I) = N[C@@H](Cc1cccc(I)c1)C(=O)O; NMeY = CN[C@@H](Cc1ccc(O)cc1)C(=O)O; NMeCha = CN[C@@H](CC1CCCCC1)C(=O)O; NMeChg = CN[C@H](C(=O)O)C1CCCCC1; NMeF = CN[C@@H](Cc1ccccc1)C(=O)O; NMeI = CC[C@H](C)[C@H](NC)C(=O)O; NMeE = CN[C@@H](CCC(=O)O)C(=O)O; NMeD = CN[C@@H](CC(=O)O)C(=O)O; NMeL = CN[C@@H](CC(C)C)C(=O)O; NMeV = CN[C@H](C(=O)O)C(C)C; Morpholide = C1CN(*)CCO1; NMeA = CN[C@@H](C)C(=O)O; Nle = CCCC[C@H](N)C(=O)O; Piperidide = C1CCN(*)CC1; Pyrrolidide = C1CCN(*)C1; Ac5c = NC1(C(=O)O)CCCC1; Aze = O=C(O)[C@@H]1CCN1; CH2CMe2OH = CC(C)(O)C*; CF3 = FC(F)(F)*; Sar = CNCC(=O)O

Each compound was assayed against T1, Kras and SOS1 (biotin-tagged human Kras loaded with GDP, His-tagged human SOS1) (Homo sapiens, UniProt P01116, G12D) (assay: Protein-protein interaction inhibition between Kras and SOS1 (KrasGl2D-SOS PPI) using AlphaScreen). Conditions: AlphaScreen; biotin-tagged human Kras loaded with GDP, His-tagged human SOS1; read-out: KRAS G12D-SOS PPI IC50.
T1 construct: made in house; host or cells: E. coli (stated for Kras only)
T1 sequence (P01116 1-188 isoform P01116-2 G12D): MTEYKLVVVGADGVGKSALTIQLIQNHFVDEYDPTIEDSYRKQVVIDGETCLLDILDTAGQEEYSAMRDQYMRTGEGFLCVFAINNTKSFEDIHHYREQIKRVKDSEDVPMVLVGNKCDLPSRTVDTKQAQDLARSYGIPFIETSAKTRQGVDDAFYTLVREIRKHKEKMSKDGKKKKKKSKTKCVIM
Format: binding
In short: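 Binding between SOS1 and Kras is detected as bead-proximity luminescence: illuminate Ni-conjugated donors (680 nm), collect 520-620 nm emission from streptavidin-conjugated acceptors; Kras carries biotin and GDP loaded after purification, SOS1 carries a His tag.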

Compound	IC50
CC[C@H](C)[C@@H]1NC(=O)[C@H](CC(F)(F)F)N(C)C(=O)C[C@@H](C(=O)N2CCCC2)N(C)C(=O)[C@H](C2CCCCC2)N(C)C(=O)C2(CCCC2)NC(=O)[C@@H]2CCCN2C(=O)[C@H](CCc2ccc(C(F)(F)F)c(Cl)c2)NC(=O)CN(C)C(=O)[C@H](Cc2ccc(C(F)(F)F)cc2)N(C)C(=O)CN(C)C(=O)CN(C)C1=O [Compound 245, (3S,9S,18S,21S,25S,28S,34S)-3-[2-[3-chloro-4-(trifluoromethyl)phenyl]ethyl]-28-cyclohexyl-7,10,13,16,22,26,29-heptamethyl-18-[(1S)-1-methylpropyl]-25-(pyrrolidine-1-carbonyl)-21-(2,2,2-trifluoroethyl)-9-[[4-(trifluoromethyl)phenyl]methyl]spiro[1,4,7,10,13,16,19,22,26,29,32-undecazabicyclo[32.3.0]heptatriacontane-31,1′-cyclopentane]-2,5,8,11,14,17,20,23,27,30,33-undecone] ([NMeAbu(4,4,4-F3)]I[Sar][Sar][NMePhe(4-CF3)][Sar][hPhe(3-Cl-4-CF3)]P[Ac5c][NMeChg][NMeD]-Pyrrolidide; lactam N-11)	0.37 nM
CC[C@H](C)[C@@H]1NC(=O)[C@H](CC(C)C)N(C)C(=O)C[C@@H](C(=O)N2CCOCC2)N(C)C(=O)[C@H](C2CCCC2)N(C)C(=O)C2(CCCC2)NC(=O)[C@H](CCC(=O)NC)N(C)C(=O)[C@H](CCc2ccc(C(F)(F)F)c(Cl)c2)NC(=O)CN(C)C(=O)[C@H](CC2CCCCC2)N(C)C(=O)[C@@H]2CCN2C(=O)[C@H](C)N(C)C1=O [Compound 2111] ([NMeL]I[NMeA][Aze][NMeCha][Sar][hPhe(3-Cl-4-CF3)][NMeE](NHMe)[Ac5c][NMeGly(cPent)][NMeD]-Morpholide; lactam N-11)	8.2 nM
CC[C@H](C)[C@@H]1NC(=O)[C@H](C)N(C)C(=O)C[C@@H](C(=O)N2CCCC2)NC(=O)[C@H](CC(C)C)N(C)C(=O)[C@H](Cc2ccccc2)N(C)C(=O)[C@H](COCC(C)(C)O)NC(=O)[C@H](CCc2ccc(C(F)(F)F)cc2)NC(=O)CN(C)C(=O)[C@H](Cc2ccc(Cl)cc2)N(C)C(=O)CN(C)C(=O)CN(C)C1=O [Compound 502] ([NMeA]I[Sar][Sar][NMePhe(4-Cl)][Sar][hPhe(4-CF3)]S(CH2CMe2OH)[NMeF][NMeL]D-Pyrrolidide; lactam N-11)	47 nM
CC[C@H](C)[C@@H]1NC(=O)[C@H](CC(C)C)N(C)C(=O)C[C@@H](C(=O)N(C)C)N(C)C(=O)[C@H](C2CCCC2)N(C)C(=O)C2(CCCC2)NC(=O)[C@H](Cc2ccc(Cl)cc2)N(C)C(=O)[C@H](CCc2ccc(C(F)(F)F)c(Cl)c2)NC(=O)CN(C)C(=O)[C@H](CC2CCCCC2)N(C)C(=O)[C@@H]2CCN2C(=O)[C@H](C)N(C)C1=O [Compound 1063] ([NMeL]I[NMeA][Aze][NMeCha][Sar][hPhe(3-Cl-4-CF3)][NMePhe(4-Cl)][Ac5c][NMeGly(cPent)][NMeD]-NMe2; lactam N-11)	43 nM
CCCC[C@@H]1NC(=O)[C@H](Cc2cccc(I)c2)NC(=O)CN(C)C(=O)[C@H](Cc2ccc(Cl)cc2)N(C)C(=O)CN(C)C(=O)CN(C)C(=O)[C@H]([C@@H](C)CC)NC(=O)[C@H](CC(C)C)N(C)C(=O)C[C@@H](C(=O)N2CCCCC2)N(C)C(=O)[C@H](CC(C)C)NC(=O)[C@H](Cc2ccc(OC(F)(F)F)cc2)N(C)C1=O [Compound 819] ([NMeL]I[Sar][Sar][NMePhe(4-Cl)][Sar][Phe(3-I)][Nle][NMeY](CF3)L[NMeD]-Piperidide; lactam N-11)	53 nM
CC[C@H](C)[C@@H]1NC(=O)[C@H](CC(C)C)N(C)C(=O)C[C@@H](C(=O)N(C)C)N(C)C(=O)[C@H]([C@@H](C)CC)N(C)C(=O)C2(CCCC2)NC(=O)[C@H](Cc2ccc(I)cc2)N(C)C(=O)[C@H](CCc2ccc(C(F)(F)F)c(Cl)c2)NC(=O)CN(C)C(=O)[C@H](Cc2ccc(C)cc2)N(C)C(=O)[C@@H]2CCN2C(=O)[C@H](C)N(C)C1=O [Compound 1888] ([NMeL]I[NMeA][Aze][NMePhe(4-Me)][Sar][hPhe(3-Cl-4-CF3)][NMePhe(4-I)][Ac5c][NMeI][NMeD]-NMe2; lactam N-11)	53 nM
CC[C@H](C)[C@@H]1NC(=O)[C@H](C)N(C)C(=O)C[C@@H](C(=O)N2CCCC2)NC(=O)[C@H](C(C)C)N(C)C(=O)[C@H](Cc2ccccc2)N(C)C(=O)[C@H](CC(C)C)N(C)C(=O)[C@H](CCc2ccc(C(F)(F)F)cc2)NC(=O)CN(C)C(=O)[C@H](Cc2ccc(Cl)cc2)N(C)C(=O)CN(C)C(=O)CN(C)C1=O [Compound 152] ([NMeA]I[Sar][Sar][NMePhe(4-Cl)][Sar][hPhe(4-CF3)][NMeL][NMeF][NMeV]D-Pyrrolidide; lactam N-11)	110 nM
CC[C@H](C)[C@@H]1NC(=O)[C@H](C)N(C)C(=O)C[C@@H](C(=O)N2CCCC2)NC(=O)[C@H](CC(C)C)N(C)C(=O)[C@H](CC(C)C)N(C)C(=O)[C@H](CC(C)C)NC(=O)[C@H](CCc2ccc(C(F)(F)F)cc2)NC(=O)CN(C)C(=O)[C@H](Cc2ccc(Cl)cc2)N(C)C(=O)CN(C)C(=O)CN(C)C1=O [Compound 46] ([NMeA]I[Sar][Sar][NMePhe(4-Cl)][Sar][hPhe(4-CF3)]L[NMeL][NMeL]D-Pyrrolidide; lactam N-11)	120 nM
CC[C@H](C)[C@@H]1NC(=O)[C@H](C)N(C)C(=O)C[C@@H](C(=O)N2CCCC2)NC(=O)[C@H](CC(C)C)N(C)C(=O)[C@H](Cc2ccccc2)N(C)C(=O)[C@H](CCCCC(F)F)NC(=O)[C@H](CCc2ccc(C(F)(F)F)cc2)NC(=O)CN(C)C(=O)[C@H](Cc2ccc(Cl)cc2)N(C)C(=O)CN(C)C(=O)CN(C)C1=O [Compound 1092] ([NMeA]I[Sar][Sar][NMePhe(4-Cl)][Sar][hPhe(4-CF3)][hNle(7,7-F2)][NMeF][NMeL]D-Pyrrolidide; lactam N-11)	41 nM
